From US9675702B2, “Methods and compositions for the sustained release of chromium” (JDS Therapeutics, LLC, priority 2007, dated 2017)
Where two headings read alike, the source gives them in different places.

Experiments:
rats = conditions: cited from earlier work
[1] = cited from earlier work
Wistar rats = assay: 12-week chromium supplementation in water of rats fed normal or high fat diet; serum glucose, cholesterol, triglycerides, free fatty acids; type: in vivo; conditions: for reduction in serum glucose levels compared with other chromium supplementation: same total elemental chromium; for serum glucose levels / serum triglyceride levels / free fatty acid levels / total serum cholesterol levels: 12 weeks; for serum glucose levels: 1.43 μg chromium in water; for total serum cholesterol levels: rats fed a normal diet (FIG. 3A)
Experimental: Wistar rats were reared at the temperature of (22±2° C.), humidity (55±5%) and a 12/12 h light/dark cycle. Pellet food and water were provided ad libitum. Rats were randomly assigned to one of eight treatment groups. Group 1: Control rats were fed standard diet (12% of calories as fat) for 12 weeks. Group 2: Rats were fed standard diet with chromium picolinate ([…] 1.43 μg chromium) included in the water for 12 weeks. Group 3: […] Group 4: […] Group 5: Rats were fed high fat diet (40% of calories as fat) for 12 weeks. Group 6: Rats were fed high-fat diet (40% of calories as fat) and with chromium picolinate (14.3 μg, providing 1.43 μg chromium) included in the water for 12 weeks. Group 7: […] Group 8: […] Bodyweight, serum glucose, composite insulin sensitivity index (CISI), serum cholesterol, serum triglycerides and serum free fatty acid levels were measured. The baseline levels for the control rats (no chromium supplementation) that were fed normal or high fat diets are shown in Table 1, below. Serum glucose levels, serum cholesterol levels, serum triglyceride levels, and free fatty acid levels were measured in all groups after twelve weeks.

skeletal muscle cells = assay: Glucose uptake ([3H]-deoxyglucose) in cultured skeletal muscle cells with or without insulin; type: cell-based; conditions: insulin-stimulated cells; versus cultures without chromium supplementation
Experimental: The following example describes experiments that compared the effects of chromium supplementation in the form of chromium picolinate versus a combination of chromium picolinate:chormium histidinate (1:1 elemental chromium) on glucose uptake in skeletal muscle cells. The amounts of chromium picolinate and the combination were adjusted so as to provide equimolar amounts of elemental chromium. […] To assess glucose uptake, [^3H]C-deoxyglucose was added to cultures of skeletal muscle, in media with or without insulin and with or without the indicated chromium supplementation. Uptake of the labeled glucose by the cells was calculated.

[2] = rats fed a high fat diet (FIG. 4B)
[3] = rats fed a high fat diet (FIG. 5B)
[4] = rats fed a normal diet (FIG. 4A)
[5] = rats fed a normal diet (FIG. 5A)

Compound	serum triglyceride levels (Wistar rats; [2])	free fatty acid levels (Wistar rats; [3])	total serum cholesterol levels (Wistar rats)	serum triglyceride levels (Wistar rats; [4])	free fatty acid levels (Wistar rats; [5])	other results
[Cl][Cr]([Cl])[Cl] [chromium chloride]						toxic effects (rats; rats, levels several thousand times the upper limit of the ESADDI for chromium for humans (based on body weight)): without toxic effects
N[C@@H](Cc1c[nH]cn1)C(=O)O [histidine]						pKa [1]: ~6.0
chromium histidinate	significant decrease	significant decrease	significant decrease	significant decrease	significant decrease	reduction in serum glucose levels compared with other chromium supplementation (Wistar rats; high fat diet rats (FIG. 2B)): significantly greater degree than chromium picolinate; serum glucose levels (Wistar rats; high-fat fed rats): decreased serum glucose levels; reduction in serum glucose levels compared with other chromium supplementation (Wistar rats; normal diet rats (FIG. 2A)): significantly greater degree than chromium picolinate; serum glucose levels (Wistar rats; normal diet rats): decreased serum glucose levels
chromium picolinate	significant decrease	significant decrease	significant decrease	significant decrease	significant decrease	glucose uptake (skeletal muscle cells): stimulated glucose uptake; toxic effects (rats; rat, in vivo): without toxic effects
